Where a name gives a salt, the structure may show the parent alone.
Target: T1, catechol-O-methyltransferase (COMT) (Homo sapiens, UniProt P21964)
T1 construct: M51A variant) was expressed in HEK 293F cells
T1 sequence (P21964 52-271 limits assumed): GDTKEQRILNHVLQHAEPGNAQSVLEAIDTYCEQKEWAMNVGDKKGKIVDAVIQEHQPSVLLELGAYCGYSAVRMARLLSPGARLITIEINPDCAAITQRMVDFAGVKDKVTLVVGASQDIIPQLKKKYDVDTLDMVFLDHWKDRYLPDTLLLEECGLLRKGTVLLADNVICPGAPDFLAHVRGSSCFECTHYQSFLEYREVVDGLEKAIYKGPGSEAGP
Assay: COMT inhibition assay (HTRF, production of SAH from SAM)
Assay type: biochemical
Details: table does not say MB-COMT or S-COMT
Protocol: The ability of compounds to inhibit the activity of catechol-O-methyltransferase (COMT) was determined by a homogenous time-resolved fluorescent (HTRF) assay (Lina et al, 2012; kit from CisBio, Codolet, France). This assay measures the production of S-adenosyl homocysteine (SAH) from the methyl donor S-adenosyl methionine. Recombinant human membrane bound COMT (MB-COMT; M51A variant) was expressed in HEK 293F cells using 293Fectin (Life Technologies, Gent, Belgium) and membranes prepared. The membranes were re-suspended in buffer (20 mM Tris/HCl pH 7; 10 mM glycerol; 2 mM MgCl2; 10 mM NaCl), aliquoted and stored at −80° C. Recombinant human soluble COMT(S-COMT), Val158 variant and a hexa-His tag on the N-terminus, was purified using Ni-NTA chromatography, the His tag removed and stored in buffer as above.
For the human MB-COMT assay, membranes (62 ng/well) were incubated with SAM (20 μM final, CisBio) and dopamine (1.5 μM final; Sigma H8502, Diegem, Belgium) in the presence or absence of varying concentrations (typically 10 concentrations ranging from 10 ? M to 0.1 nM) of compound for 40 min at 37° C. in 384-well microtiter plates (10 ? l per well final volume). The reaction was terminated by the addition of acylation buffer and the amount of SAH produced determined according to manufacturer's instructions. Specific inhibition as that inhibited by a high concentration of tolcapone and all experiments were validated using a control curve to tolcapone.
The human S-COMT assay was performed as above except that 0.15 ng enzyme/well was incubated with SAM ([…]) and dopamine (100 μM final) for 15 min at 37° C. and SAH production determined.
HTRF readings were performed using a Perkin Elmer Envision and results expressed as concentration of SAH produced using a standard curve. Results were analyzed using non-linear regression to the 4-parameter logistic equation and pIC50 (−log 10 concentration of drug which inhibits enzyme activity/SAH production by 50%) determined.

| SMILES | Activity range (pIC50) |
| --- | --- |
| O=c1cc2n(cc1O)CCN(Cc1ccc(C3CC3)cc1Cl)C2 [Example 64, 2-[(2-chloro-4-cyclopropyl-phenyl)methyl]-7-hydroxy-3,4-dihydro-1H-pyrido[1,2-a]pyrazin-8-one hydrochloride] | +++ (three plus signs (+++) is associated with a pIC50 of above about 7) |
| O=c1cc2n(cc1O)CCN(C1CCc3cccc(F)c31)C2 (stereo not shown) [Example 79, 2-(7-fluoro-2,3-dihydro-1H-inden-1-yl)-7-hydroxy-1,2,3,4-tetrahydro-8H-pyrido[1,2-a]pyrazin-8-one] | +++ (three plus signs (+++) is associated with a pIC50 of above about 7) |
| O=c1cc2n(cc1O)CCN(Cc1ccc(OCc3ccccc3)cc1)C2 [Example 52, 2-[4-(benzyloxy)benzyl]-7-hydroxy-1,2,3,4-tetrahydro-8H-pyrido[1,2-a]pyrazin-8-one] | +++ (three plus signs (+++) is associated with a pIC50 of above about 7) |
| CCc1ccc(CN2CCn3cc(O)c(=O)cc3C2C(C)C)cc1 (stereo not shown) [Example 120, 2-(4-ethylbenzyl)-7-hydroxy-1-(propan-2-yl)-1,2,3,4-tetrahydro-8H-pyrido[1,2-a]pyrazin-8-one] | +++ (three plus signs (+++) is associated with a pIC50 of above about 7) |
| CC1(C)Cn2cc(O)c(=O)cc2CN1Cc1ccccc1Cl [Example 65, 2-[(2-chlorophenyl)methyl]-7-hydroxy-3,3-dimethyl-1,4-dihydropyrido[1,2-a]pyrazin-8-one] | ++ (two plus signs (++) is associated with a pIC50 of from about 6 to 7) |
| Cc1ccccc1CN1CCn2cc(O)c(=O)cc2C1 [Example 33, 7-hydroxy-2-(2-methylbenzyl)-1,2,3,4-tetrahydro-8H-pyrido[1,2-a]pyrazin-8-one] | +++ (three plus signs (+++) is associated with a pIC50 of above about 7) |
| O=c1cc2n(cc1O)CCN(Cc1csc(-c3ccccc3)n1)C2 [Example 102, 7-hydroxy-2-[(2-phenyl-1,3-thiazol-4-yl)methyl]-1,2,3,4-tetrahydro-8H-pyrido[1,2-a]pyrazin-8-one] | ++ (two plus signs (++) is associated with a pIC50 of from about 6 to 7) |
| CCc1ccc(CN2CCn3cc(O)c(=O)cc3[C@H]2c2ccccc2)cc1 (single isomer, unassigned) [Example 118] | +++ (three plus signs (+++) is associated with a pIC50 of above about 7) |
| O=c1cc2n(cc1O)CCN(C1CCCc3ccccc31)C2 (stereo not shown) [Example 90, 7-hydroxy-2-(1,2,3,4-tetrahydronaphthalen-1-yl)-1,2,3,4-tetrahydro-8H-pyrido[1,2-a]pyrazin-8-one] | +++ (three plus signs (+++) is associated with a pIC50 of above about 7) |
| O=c1cc2n(cc1O)CCN(Cc1c[nH]nc1-c1ccccc1)C2 [Example 45, 7-hydroxy-2-[(3-phenyl-1H-pyrazol-4-yl)methyl]-1,2,3,4-tetrahydro-8H-pyrido[1,2-a]pyrazin-8-one] | ++ (two plus signs (++) is associated with a pIC50 of from about 6 to 7) |
| CCc1ccc(CN2CCn3cc(O)c(=O)c(C4CC4)c3C2)cc1 [Example 141, 9-cyclopropyl-2-(4-ethylbenzyl)-7-hydroxy-1,2,3,4-tetrahydro-8H-pyrido[1,2-a]pyrazin-8-one] | ++ (two plus signs (++) is associated with a pIC50 of from about 6 to 7) |
| O=c1c(O)cn2c(c1Br)CN(Cc1ccccc1Cl)CC2 [Example 139, 9-bromo-2-[(2-chlorophenyl)methyl]-7-hydroxy-3,4-dihydro-1H-pyrido[1,2-a]pyrazin-8-one] | +++ (three plus signs (+++) is associated with a pIC50 of above about 7) |
| COc1cccc(OC)c1CN1CCn2cc(O)c(=O)cc2C1 [Example 46, 2-(2,6-dimethoxybenzyl)-7-hydroxy-1,2,3,4-tetrahydro-8H-pyrido[1,2-a]pyrazin-8-one] | ++ (two plus signs (++) is associated with a pIC50 of from about 6 to 7) |
| O=c1c(O)cn2c(c1Cl)CN(Cc1c(F)cccc1Cl)CC2 [Example 133, 9-chloro-2-(2-chloro-6-fluorobenzyl)-7-hydroxy-1,2,3,4-tetrahydro-8H-pyrido[1,2-a]pyrazin-8-one] | +++ (three plus signs (+++) is associated with a pIC50 of above about 7) |
| CC(c1ccc(F)cc1)N1CCn2cc(O)c(=O)cc2C1 (stereo not shown) [Example 99, 2-[1-(4-fluorophenyl)ethyl]-7-hydroxy-1,2,3,4-tetrahydro-8H-pyrido[1,2-a]pyrazin-8-one] | ++ (two plus signs (++) is associated with a pIC50 of from about 6 to 7) |
| CC(C)c1ccc(CN2CCn3cc(O)c(=O)cc3C2)cc1 [Example 10, 7-hydroxy-2-[4-(propan-2-yl)benzyl]-1,2,3,4-tetrahydro-8H-pyrido[1,2-a]pyrazin-8-one] | +++ (three plus signs (+++) is associated with a pIC50 of above about 7) |
| CC(CN1CCn2cc(O)c(=O)cc2C1)c1ccccc1 (stereo not shown) [Example 31, 7-hydroxy-2-(2-phenylpropyl)-1,2,3,4-tetrahydro-8H-pyrido[1,2-a]pyrazin-8-one] | ++ (two plus signs (++) is associated with a pIC50 of from about 6 to 7) |
| CC(c1cccc(F)c1)N1CCn2cc(O)c(=O)cc2C1 (stereo not shown) [Example 81, 2-[1-(3-fluorophenyl)ethyl]-7-hydroxy-1,2,3,4-tetrahydro-8H-pyrido[1,2-a]pyrazin-8-one] | ++ (two plus signs (++) is associated with a pIC50 of from about 6 to 7) |
| O=c1cc2n(cc1O)CCN(Cc1cc(Cl)cc(Cl)c1)C2 [Example 21, 2-(3,5-dichlorobenzyl)-7-hydroxy-1,2,3,4-tetrahydro-8H-pyrido[1,2-a]pyrazin-8-one] | +++ (three plus signs (+++) is associated with a pIC50 of above about 7) |
| CCC(c1ccccc1)N1CCn2cc(O)c(=O)cc2C1 (stereo not shown) [Example 89, 7-hydroxy-2-(1-phenylpropyl)-1,2,3,4-tetrahydro-8H-pyrido[1,2-a]pyrazin-8-one] | ++ (two plus signs (++) is associated with a pIC50 of from about 6 to 7) |
| Cc1nn(-c2ccccc2)c(C)c1CN1CCn2cc(O)c(=O)cc2C1 [Example 103, 2-[(3,5-dimethyl-1-phenyl-1H-pyrazol-4-yl)methyl]-7-hydroxy-1,2,3,4-tetrahydro-8H-pyrido[1,2-a]pyrazin-8-one] | ++ (two plus signs (++) is associated with a pIC50 of from about 6 to 7) |
| O=c1cc2n(cc1O)CCN(Cc1ccccc1)C2c1ccccc1 (stereo not shown) [Example 116, 2-benzyl-7-hydroxy-1-phenyl-1,2,3,4-tetrahydro-8H-pyrido[1,2-a]pyrazin-8-one] | +++ (three plus signs (+++) is associated with a pIC50 of above about 7) |
| CCc1ccc(CN2CCn3cc(O)c(=O)cc3C2C)cc1 (stereo not shown) [Example 122, 2-(4-ethylbenzyl)-7-hydroxy-1-methyl-1,2,3,4-tetrahydro-8H-pyrido[1,2-a]pyrazin-8-one] | +++ (three plus signs (+++) is associated with a pIC50 of above about 7) |
| O=c1cc2n(c(F)c1O)CCN(Cc1ccc(OC(F)(F)F)cc1)C2 [Example 135, 2-[(4-(trifluoromethoxy)phenyl)methyl]-6-fluoro-7-hydroxy-3,4-dihydro-1H-pyrido[1,2-a]pyrazin-8-one] | ++ (two plus signs (++) is associated with a pIC50 of from about 6 to 7) |
| O=c1cc2n(cc1O)CCN(Cc1ccc3c(c1)OCCO3)C2 [Example 48, 2-(2,3-dihydro-1,4-benzodioxin-6-ylmethyl)-7-hydroxy-1,2,3,4-tetrahydro-8H-pyrido[1,2-a]pyrazin-8-one] | ++ (two plus signs (++) is associated with a pIC50 of from about 6 to 7) |
| Cc1ccc(C)c(CN2CCn3cc(O)c(=O)cc3C2)c1 [Example 28, 2-(2,5-dimethylbenzyl)-7-hydroxy-1,2,3,4-tetrahydro-8H-pyrido[1,2-a]pyrazin-8-one] | +++ (three plus signs (+++) is associated with a pIC50 of above about 7) |
| COc1cccc(OC)c1C(C)N1CCn2cc(O)c(=O)cc2C1 (stereo not shown) [Example 74, 2-[1-(2,6-dimethoxyphenyl)ethyl]-7-hydroxy-1,2,3,4-tetrahydro-8H-pyrido[1,2-a]pyrazin-8-one] | ++ (two plus signs (++) is associated with a pIC50 of from about 6 to 7) |
| Cc1cccc(C)c1CN1CCn2cc(O)c(=O)cc2C1C (stereo not shown) [Example 121, 2-(2,6-dimethylbenzyl)-7-hydroxy-1-methyl-1,2,3,4-tetrahydro-8H-pyrido[1,2-a]pyrazin-8-one] | +++ (three plus signs (+++) is associated with a pIC50 of above about 7) |
